From US20230406843A1, “Progranulin Modulators and Methods of Using the Same” (ARKUDA THERAPEUTICS, priority 2020, published 2023)

tested on: progranulin; assay: Progranulin induction cellular assay (ELISA of secreted mouse PGRN); format: cell-based; settings: Mus musculus, BV-2, read-out: EC50 μM
How it was run: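 Mouse primary microglia, primary cortical neurons and BV-2 cells are used. BV-2 cells are plated in 96-well format the day before, with a 1 h attachment and 16 h incubation. Progranulin secreted into the medium is quantified by ELISA.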

| SMILES | EC50 |
| --- | --- |
| C=CCO[C@H]1CO[C@@H](C(=O)N2CCc3ccccc3[C@@H]2c2ccc(F)cc2)C[C@@H]1N [Compound 5476, ((2R,4S,5R)-5-(allyloxy)-4-aminotetrahydro-2H-pyran-2-yl)((S)-1-(4-fluorophenyl)-3,4-dihydroisoquinolin-2(1H)-yl)methanone] | 0.001 µM |
| CC(=O)N[C@H]1CO[C@@H](C(=O)N2CCc3ccccc3[C@@H]2c2ccc(F)cc2)C[C@@H]1N [Compound 5512, N-((3R,4S,6R)-4-amino-6-((S)-1-(4-fluorophenyl)-1,2,3,4-tetrahydroisoquinoline-2-carbonyl)tetrahydro-2H-pyran-3-yl)acetamide] | 0.005 µM |

same assay, conditions: progranulin induction assay; mouse pMG, primary cortical neurons and BV-2 cell lines named, cell type not given; ELISA-based readout; read-out: EC50

| SMILES | EC50 |
| --- | --- |
| CS(=O)(=O)N[C@@H]1CO[C@@H](C(=O)N2CCc3ccccc3[C@@H]2c2ccc(F)cc2)C[C@@H]1N [Compound 5428, N-((3S,4S,6R)-4-amino-6-((S)-1-(4-fluorophenyl)-1,2,3,4-tetrahydroisoquinoline-2-carbonyl)tetrahydro-2H-pyran-3-yl)methanesulfonamide] | > 10 µM |
| O=C([C@H]1C[C@@H]2NC=N[C@@H]2CO1)N1CCc2ccccc2[C@@H]1c1ccc(F)cc1 [Compound 5430, ((S)-1-(4-fluorophenyl)-3,4-dihydroisoquinolin-2(1H)-yl)((3aS,6R,7aS)-1,3a,4,6,7,7a-hexahydropyrano[3,4-d]imidazol-6-yl)methanone] | > 0.3 µM |
| O=C([C@H]1C[C@@H]2OCCN[C@@H]2CO1)N1CCc2ccccc2[C@@H]1c1ccc(F)cc1 [Compound 5432, ((S)-1-(4-fluorophenyl)-3,4-dihydroisoquinolin-2(1H)-yl)((4aR,7R,8aS)-hexahydro-2H,5H-pyrano[4,3-b][1,4]oxazin-7-yl)methanone] | 0.113 µM |
| N[C@H]1C[C@H](C(=O)N2CCc3ccccc3[C@@H]2c2ccc(F)cc2)OC[C@H]1OC(F)F [Compound 5443, ((2R,4S,5S)-4-amino-5-(difluoromethoxy)tetrahydro-2H-pyran-2-yl)((S)-1-(4-fluorophenyl)-3,4-dihydroisoquinolin-2(1H)-yl)methanone] | 0.151 µM |
| CN(C)[C@H]1C[C@H](C(=O)N2CCc3ccccc3[C@@H]2c2ccc(F)cc2)OC[C@H]1O [Compound 5447, ((2R,4S,5S)-4-(dimethylamino)-5-hydroxytetrahydro-2H-pyran-2-yl)((S)-1-(4-fluorophenyl)-3,4-dihydroisoquinolin-2(1H)-yl)methanone] | 0.659 µM |
| C[C@H]1CN[C@H]2C[C@H](C(=O)N3CCc4ccccc4[C@@H]3c3ccc(F)cc3)OC[C@@H]2O1 [Compound 5471, ((S)-1-(4-fluorophenyl)-3,4-dihydroisoquinolin-2(1H)-yl)((3S,4aR,7R,8aS)-3-methyloctahydropyrano[3,4-b][1,4]oxazin-7-yl)methanone] | 0.109 µM |
| O=C([C@H]1C[C@@H]2NC[C@@H](C(F)(F)F)O[C@H]2CO1)N1CCc2ccccc2[C@@H]1c1ccc(F)cc1 [Compound 5473, ((S)-1-(4-fluorophenyl)-3,4-dihydroisoquinolin-2(1H)-yl)((3S,4aR,7R,8aS)-3-(trifluoromethyl)octahydropyrano[3,4-b][1,4]oxazin-7-yl)methanone] | 0.621 µM |
| O=C([C@H]1C[C@@H]2NC[C@H](C(F)(F)F)O[C@H]2CO1)N1CCc2ccccc2[C@@H]1c1ccc(F)cc1 [Compound 5474, ((S)-1-(4-fluorophenyl)-3,4-dihydroisoquinolin-2(1H)-yl)((3R,4aR,7R,8aS)-3-(trifluoromethyl)octahydropyrano[3,4-b][1,4]oxazin-7-yl)methanone] | 1.51 µM |
| N[C@H]1CCO[C@@H](C(=O)N2CCc3ccccc3[C@@H]2c2ccc(F)cc2F)C1 [Compound 5500] | 0.19 µM |
| O=C([C@H]1OCCN[C@@H]1CF)N1CCc2ccccc2[C@@H]1c1ccc(F)cc1 [Compound 5501] | 3.86 µM |
| C[C@@]1(C(=O)N2CCc3ccccc3[C@@H]2c2ccc(F)cc2)OCCNC[C@H]1O [Compound 5505] | 0.41 µM |
| C[C@]1(C(=O)N2CCc3ccccc3[C@@H]2c2ccc(F)cc2)OCCNC[C@@H]1O [Compound 5506] | 0.398 µM |
| CC(C)(C)O[C@H]1CO[C@@H](C(=O)N2CCc3ccccc3[C@@H]2c2ccc(F)cc2)C[C@@H]1N [Compound 5511, ((2R,4S,5R)-4-amino-5-(tert-butoxy)tetrahydro-2H-pyran-2-yl)((S)-1-(4-fluorophenyl)-3,4-dihydroisoquinolin-2(1H)-yl)methanone] | 0.0002 µM |

Other lines, results leading:

| EC50 | SMILES |
| --- | --- |
| 0.029 µM | CN[C@@H]1CO[C@@H](C(=O)N2CCc3ccccc3[C@@H]2c2ccc(F)cc2)C[C@@H]1O [Compound 5431, ((S)-1-(4-fluorophenyl)-3,4-dihydroisoquinolin-2(1H)-yl)((2R,4S,5R)-4-hydroxy-5-(methylamino)tetrahydro-2H-pyran-2-yl)methanone] |
| 0.044 µM | O=C([C@H]1C[C@@H]2NCCO[C@@H]2CO1)N1CCc2ccccc2[C@@H]1c1ccc(F)cc1 [Compound 5448, ((S)-1-(4-fluorophenyl)-3,4-dihydroisoquinolin-2(1H)-yl)((4aS,7R,8aS)-octahydropyrano[3,4-b][1,4]oxazin-7-yl)methanone] |
| 0.01 µM | O=C([C@H]1C[C@@H]2NCCN[C@H]2CO1)N1CCc2ccccc2[C@@H]1c1ccc(F)cc1 [Compound 5461, ((S)-1-(4-fluorophenyl)-3,4-dihydroisoquinolin-2(1H)-yl)((4aR,7R,8aS)-octahydro-2H-pyrano[3,4-b]pyrazin-7-yl)methanone] |
| 0.003 µM | CN1CCN[C@H]2C[C@H](C(=O)N3CCc4ccccc4[C@@H]3c3ccc(F)cc3)OC[C@@H]21 [Compound 5462, ((S)-1-(4-fluorophenyl)-3,4-dihydroisoquinolin-2(1H)-yl)((4aR,7R,8aS)-4-methyloctahydro-2H-pyrano[3,4-b]pyrazin-7-yl)methanone] |
| 0.013 µM | C[C@@H]1CN[C@H]2C[C@H](C(=O)N3CCc4ccccc4[C@@H]3c3ccc(F)cc3)OC[C@@H]2O1 [Compound 5472, ((S)-1-(4-fluorophenyl)-3,4-dihydroisoquinolin-2(1H)-yl)((3R,4aR,7R,8aS)-3-methyloctahydropyrano[3,4-b][1,4]oxazin-7-yl)methanone] |
| 0.001 µM | N[C@H]1C[C@H](C(=O)N2CCc3ccccc3[C@@H]2c2ccc(F)cc2)OC[C@@H]1OCC(F)(F)F [Compound 5475, ((2R,4S,5R)-4-amino-5-(2,2,2-trifluoroethoxy)tetrahydro-2H-pyran-2-yl)((S)-1-(4-fluorophenyl)-3,4-dihydroisoquinolin-2(1H)-yl)methanone] |
| 0.001 µM | CCCO[C@H]1CO[C@@H](C(=O)N2CCc3ccccc3[C@@H]2c2ccc(F)cc2)C[C@@H]1N [Compound 5502, ((2R,4S,5R)-4-amino-5-propoxytetrahydro-2H-pyran-2-yl)((S)-1-(4-fluorophenyl)-3,4-dihydroisoquinolin-2(1H)-yl)methanone] |
| 0.005 µM | CN[C@H]1C[C@H](C(=O)N2CCc3ccccc3[C@@H]2c2ccc(F)cc2)OC[C@@H]1OC [Compound 5503, ((S)-1-(4-fluorophenyl)-3,4-dihydroisoquinolin-2(1H)-yl)((2R,4S,5R)-5-methoxy-4-(methylamino)tetrahydro-2H-pyran-2-yl)methanone] |
| 0.009 µM | CCN[C@H]1C[C@H](C(=O)N2CCc3ccccc3[C@@H]2c2ccc(F)cc2)OC[C@@H]1OC [Compound 5504, ((2R,4S,5R)-4-(ethylamino)-5-methoxytetrahydro-2H-pyran-2-yl)((S)-1-(4-fluorophenyl)-3,4-dihydroisoquinolin-2(1H)-yl)methanone] |
| 0.001 µM | N[C@H]1C[C@H](C(=O)N2CCc3ccccc3[C@@H]2c2ccc(F)cc2)OC[C@@H]1OC(F)(F)F [Compound 5507, ((2R,4S,5R)-4-amino-5-(trifluoromethoxy)tetrahydro-2H-pyran-2-yl)((S)-1-(4-fluorophenyl)-3,4-dihydroisoquinolin-2(1H)-yl)methanone] |
| 0.03 µM | CCN[C@H]1C[C@H](C(=O)N2CCc3ccccc3[C@@H]2c2ccc(F)cc2)OC[C@H]1O [Compound 5508, ((2R,4S,5S)-4-(ethylamino)-5-hydroxytetrahydro-2H-pyran-2-yl)((S)-1-(4-fluorophenyl)-3,4-dihydroisoquinolin-2(1H)-yl)methanone] |
| 0.001 µM | CCO[C@H]1CO[C@@H](C(=O)N2CCc3ccccc3[C@@H]2c2ccc(F)cc2)C[C@@H]1NC [Compound 5509, ((2R,4S,5R)-5-ethoxy-4-(methylamino)tetrahydro-2H-pyran-2-yl)((S)-1-(4-fluorophenyl)-3,4-dihydroisoquinolin-2(1H)-yl)methanone] |
| 0.002 µM | CCN[C@H]1C[C@H](C(=O)N2CCc3ccccc3[C@@H]2c2ccc(F)cc2)OC[C@@H]1OCC [Compound 5510, ((2R,4S,5R)-5-ethoxy-4-(ethylamino)tetrahydro-2H-pyran-2-yl)((S)-1-(4-fluorophenyl)-3,4-dihydroisoquinolin-2(1H)-yl)methanone] |
| 0.03 µM | CCC(=O)N[C@H]1CO[C@@H](C(=O)N2CCc3ccccc3[C@@H]2c2ccc(F)cc2)C[C@@H]1N [Compound 5513, N-((3R,4S,6R)-4-amino-6-((S)-1-(4-fluorophenyl)-1,2,3,4-tetrahydroisoquinoline-2-carbonyl)tetrahydro-2H-pyran-3-yl)propionamide] |
| 0.024 µM | N[C@H]1C[C@H](C(=O)N2CCc3ccccc3[C@@H]2c2ccc(F)cc2)OC[C@@H]1NC(=O)C(F)(F)F [Compound 5514, N-((3R,4S,6R)-4-amino-6-((S)-1-(4-fluorophenyl)-1,2,3,4-tetrahydroisoquinoline-2-carbonyl)tetrahydro-2H-pyran-3-yl)-2,2,2-trifluoroacetamide] |
| 0.007 µM | CC(=O)N(C)[C@H]1CO[C@@H](C(=O)N2CCc3ccccc3[C@@H]2c2ccc(F)cc2)C[C@@H]1N [Compound 5516, N-((3R,4S,6R)-4-amino-6-((S)-1-(4-fluorophenyl)-1,2,3,4-tetrahydroisoquinoline-2-carbonyl)tetrahydro-2H-pyran-3-yl)-N-methylacetamide] |
